Source: paper PMC12298629, “New Derivatives of Caracasine Acid with Anti-Leukemic Activity and Limited Effectiveness in Spheroid Cultures” (Pharmaceuticals, 2025)

Key:
[1] = system: MRC-5; assay: Cytotoxic MTS assay, MRC-5 fibroblasts; type: cell-based; settings: MRC5, human fibroblasts, 72 h, median of five assays
From the text: (§1) The cancer cell lines used in the cytotoxic assays were acquired from the American Tissue Culture Collection (ATCC) (Manassas, VA, USA) and maintained as described previously. The MRC-5 and BJ human fibroblasts were used as non-tumoral control cells. The (MRC-5 LD and BJ LD) are also human fibroblast cell lines resistant to doxorubicin. […] The Raji and Ramos cell lines correspond to B-cell leukemia. Other cells, such as U2OS, represent a child osteosarcoma, while HCT116 is a colorectal tumor cell line. (HCT116p53^−/−, Horizon Discovery Ltd., Cambridge, UK) is a similar cell line with its p53 gene knocked down, serving as a model of human cancer frequently associated with a poor prognosis. The cells were maintained in Nunc/corning 80 cm^2 plastic tissue culture flasks and cultured in a cell culture medium according to ATCC or Horizon recommendations (McCoy, DMEM/RPMI 1640 with 5 g/L glucose, 2 mM glutamine, 100 U/mL penicillin, […] streptomycin, 10% fetal calf serum, and NaHCO3). The compounds were freshly dissolved in DMSO. The final concentration of DMSO was 0.01% in the cell culture.
(§2) The in vitro cytotoxicity of compounds (1–7) was assessed using the standard 3-(4,5-dimethyl-thiazol-2yl)-5-(3-carboxymethoxyphenyl)-2-(sulfophenyl)-2H-tetrazolium (MTS). The assay was performed at the Institute of Molecular and Translational Medicine using a robotic platform (High-ResBiosolutions, Beverly, MA, USA). Cell suspensions were prepared and diluted according to the specific cell type and the expected target cell density (25,000–35,000 cells/mL, based on cell growth characteristics). An automatic pipettor (30 μL) was used to add cells into 384-well microtiter plates. All tested compounds were dissolved in 100% DMSO, and four-fold dilutions of the intended test concentrations were added in 0.15 μL aliquots at time zero to the microtiter plate wells by the echo acoustic non-contact liquid handler Echo550 (Labcyte, San Jose, CA, USA). The assays were accomplished in technical duplicates and at least three biological replicates. The cells were incubated with the tested compound for 72 h at 37 °C in a 5% CO2 atmosphere with 100% humidity. At the end of the incubation period, cells were assayed using the MTS test. Aliquots (5 μL) of the MTS stock solution were pipetted into each well and incubated for 1–4 h. After this incubation period, the optical density (OD) was measured at 490 nm using an Envision reader (PerkinElmer, Waltham, MA, USA). Tumor cell survival (TCS) was calculated using the following equation: TCS = (OD drug-exposed well/mean OD control wells) × 100%. The IC50 value, representing the concentration of the compound lethal to 50% of the tumor cells, was calculated from the corresponding dose-response curves using Dotmatics software (Updated version 2022, London, UK). After three days of incubation on the cancer cell lines and normal fibroblasts, the […] (IC50) were obtained. Five assays were performed for each cell line. The standard error of the assays was lower than 10%, as assessed by the triplicate assays.

[2] = system: U2OS; assay: Cytotoxic MTS assay, U2OS 2D; type: cell-based; settings: U2OS, human tumors 2D, 72 h, median of five assays
From the text: as §1, §2

[3] = system: BJ LD; assay: Cytotoxic MTS assay, BJ LD fibroblasts (doxorubicin-resistant); type: cell-based; settings: Fibroblast, doxorubicin-resistant human fibroblasts, 72 h, median of five assays
From the text: as §1, §2

[4] = system: caspase 8; assay: Caspase 8 activity in lysed HCT116 cells from 2D and spheroids; type: cell-based, human; settings: 12 h; for Caspase 8 activity, 2D culture: HCT116 parental, 25 µM; for Caspase 8 activity, spheroid culture: HCT116 parental spheroids, 25 µM (cisplatin 15 μM)
Procedure: The assay was designed to evaluate the impact of various compounds on caspase activity using a standardized quantity of cell protein lysates after 12 h of incubation. The parental line HCT116 served as the basis for these experiments. Three distinct caspases were examined employing the fluorescence assay kits from Calbiochem (San Diego, CA, USA), specifically a fluorometric caspase-8 assay kit and a fluorimetric caspase-3 assay kit. Additionally, the fluorometric kit from Abcam was utilized to assess caspase-9 activity. Due to the variations in protocols for each caspase, separate plates were prepared for each assay, encompassing both two-dimensional (2D) cell cultures and spheroids. The compound concentrations were established at 25 µM, and assays were conducted in quintuplicate following a 12-h incubation period. The cells were harvested from the plates using the standard trypsin-EDTA solution (Merck Sigma Aldrich, Saint Louis, MO, USA), washed, and counted before lysis, as described in each kit. Cell processing adhered to the guidelines provided by the respective companies, and protein concentration was calculated and standardized using the standard BCA assay. Fluorescent readings were captured using the Enspire apparatus (Perkin-Elmer, MA, USA). Positive controls utilized included staurosporine at a concentration of 5 μM and cisplatin at 15 μM. The kits provided their own standards; however, to normalize all the readings between cultures, types, and treatments, the results were expressed as a percentage relative to the positive control, staurosporine, in 2D culture. […] A total of three separate assays were conducted for each caspase.

[5] = system: BJ; assay: Cytotoxic MTS assay, BJ fibroblasts; type: cell-based; settings: BJ, human fibroblasts, 72 h, median of five assays
From the text: as §1, §2

[6] = system: A549 spheroids; assay: Spheroid viability assay (CellTiter-Glo 3D), A549 spheroids; type: cell-based; settings: A549, human tumors spheroids, 72 h, 100 pM to 50 μM
Procedure: (§3) Spheroid culture aims to analyze the drug’s effect on complex structures resembling solid tumors. The spheroids were prepared using the specific nonadherent plates for spheroid formation (Nunc Sphera, Thermo Fisher, Waltham, MA, USA) according to the simple protocol outlined by the manufacturer. The cell lines HCT116 parental, HCT116KOTp53, A549, and U2OS were cultured at a density of 2500 cells per well using medium containing 10% fetal calf serum and antibiotics: McCoy’s 5A medium for HCT116, F-12K (Kaighn’s Modified) for A549, and Dulbecco’s Modified Eagle Medium (DMEM). The cells were grown in culture for 48 h as recommended by the manufacturer and as described by Das et al. and Muñoz-Garcia et al..
(§4) The cell viability of the treated spheroids was assessed using the kit CellTiter-Glo 3D (Promega Corporation, Madison, WI, USA). The kit is designed to measure ATP as an indicator of viability, generating a luminescent readout that is more sensitive than colorimetric or fluorescence-based methods. The spheroids were cultivated with compounds at concentrations ranging from 100 pM to 50 μM in triplicate for 72 h, and the luminescence was measured using the Enspire apparatus (PerkinElmer). A standard curve was performed for each analysis as recommended by the manufacturer.

[7] = system: HCT116 par; assay: Cytotoxic MTS assay, HCT116 parental 2D; type: cell-based; settings: HCT-116, human tumors 2D, 72 h, median of five assays
From the text: as §1, §2

[8] = system: MRC-5 LD; assay: Cytotoxic MTS assay, MRC-5 LD fibroblasts (doxorubicin-resistant); type: cell-based; settings: MRC5, doxorubicin-resistant human fibroblasts, 72 h, median of five assays
From the text: as §1, §2

[9] = system: A549; assay: Cytotoxic MTS assay, A549 2D; type: cell-based; settings: A549, human tumors 2D, 72 h, median of five assays
From the text: as §1, §2

[10] = system: HCT116 par spheroids; assay: Spheroid viability assay (CellTiter-Glo 3D), HCT116 parental spheroids; type: cell-based; settings: HCT-116, human tumors spheroids, 72 h, 100 pM to 50 μM
Procedure: as §3, §4

Structure (SMILES)	IC50 [1]	IC50 [2]	IC50 [3]	Caspase 8 activity, 2D culture [4]	IC50 [5]	IC50 [6]	IC50 [7]	IC50 [8]	IC50 [9]	IC50 [10]	Caspase 8 activity, spheroid culture [4]
C=C(C)C1CCC23CC(CCC2C1(C)CCC(=O)OC(C)=O)C(C)C3=O (single isomer, unassigned; ent-3) [Compound 6, Ent-3,4-Seco-15-Oxo-Kaur-4(19)-en-Acetic Anhydride]	> 50 µM	> 50 µM	> 50 µM	did not induce caspase activity	> 50 µM	> 50 µM	> 50 µM	> 50 µM	> 50 µM	> 50 µM	
C=C(C)C1CCC23CC(CCC2C1(C)CCC(=O)O)C(C)C3=O (single isomer, unassigned; ent-3) [Compound 5, Ent-3,4-Seco-15-Oxo-Kaur-4(19)-en-3-Oic Acid]	> 50 µM	> 50 µM	> 50 µM	did not induce caspase activity	> 50 µM	> 50 µM	> 50 µM	> 50 µM	> 50 µM	> 50 µM	
C=C1C(=O)C23CCC(C(=C)C)C(C)(CCC(=O)OC(C)=O)C2CCC1C3 (stereo not shown) [Compound 7, Caracasine-Acetic Anhydride]	6.45 µM	2.21 µM	7.63 µM		7.68 µM	> 50 µM	2.12 µM	5.53 µM	3.72 µM	> 50 µM	absence of caspase activity
C=C1C(=O)C23CCC(C(=C)C)C(C)(CCC(=O)OC)C2CCC1C3 (stereo not shown) [Compound 2, Caracasine]	6.84 µM	3.19 µM	7.42 µM		7.28 µM	> 50 µM	2.02 µM	6.36 µM	8.39 µM	> 50 µM	absence of caspase activity
